According to patent publication US20260335323A1, “CHIMERIC MOLECULE” (UCL Business Ltd, priority 2023, published 2026):

Legend:
LC3 = experiment: Western blot, LC3I:LC3II ratio in PANC-1 cells; assay type: cell-based, human
Excerpt: (§1) FIG. 2. BL-918 is a potent ULK1 agonist and autophagy inducer (A) Representative images of PANC-1 cells stably expressing the mCherry-EGFP-LC3 tandem reporter treated with ULK1 agonists. Nuclei stained with Hoechst 33342, autophagosomes are shown in the EGFP channel and autolysosomes in the mCherry channel. Fold change in the number of autophagosomes (B) and autolysosomes (C) puncta in ULK1 agonist treated cells. (D) Western blot of PANC-1 cells treated with DMSO, bafilomycin and ULK1 agonists±bafilomycin; probed for p-ULK1 (S317), ULK1, p62, b-actin, LC3-I and LC3-II. Quantifications of western blot for changes in the ratio of p-ULK1 (S317):ULK1 (E), p62 (F) and LC31:LC3II (G). All data shown are mean±SEM, n=3, *p<0.05, ** p<0.01, one-way ANOVA with Dunnett's multiple comparisons test.
FIG. 4. ULKTACs retain ULK1 agonist activity and subsequent induction of autophagy (A) Western blot of PANC-1 cells treated with ULKTACs±bafilomycin, probed for p-ULK1 (S317), ULK1, p62, b-Actin, LC31 and LC3II. Quantifications of (A) for the pULK1:ULK1 ratio (B) LC3I:LC3II ratio (C) and changes in p62 (D). (E) Representative images of PANC-1 cells stably expressing the mCherry-EGFP-LC3 tandem reporter treated with ULKTACs w/or w/o bafilomycin. Nuclei stained with Hoechst 33342, autophagosomes are shown in the EGFP channel and autolysosomes in the mCherry channel. […]
Cells were homogenised in protein lysis buffer consisting of 0.1 M Tris pH 8.0, 0.1 M NaCl, 5% glycerol, IGEPAL® CA-630 (#18896. Sigma-Aldrich) and 5 mM EDTA, 0.1 M N-ethyl maleimide (ThermoFisher, #23030) and protease inhibitor (Cell Signalling Technologies, #5871). Protein concentrations were determined using the BCA assay to ensure equal loading. […]
Membranes were then incubated with horseradish peroxidase (HRP)-conjugated secondary antibodies (Rabbit #7074 and Mouse #7076) purchased from Cell Signalling Technologies for 1 hour and the HRP signal was detected using EZ-ECL Enhanced Chemiluminescence Detection Kit for HRP (#20-500-500, Sartorius), and imaged with an Alliance Q9 Advanced (UVITec). […]

PANC-1 cells = experiment: mCherry-EGFP-LC3 tandem reporter assay, autophagosomes/autolysosomes; assay type: cell-based, human; details: for autophagic flux: bafilomycin A1 co-treatment; for enhanced number of mCherry puncta: co-treatment with bafilomycin A1; for fold increase in number of mCherry puncta: mCherry puncta (autolysosomes); for fold increase in number of EGFP puncta: panc-1 cells
Experimental: FIG. 1. The structure of AUTAC-4 is shown in (A). (B) Representative images of SH-SY5Y cells stably expressing the mito-mKeima reporter treated with AUTAC4 for 18 h. Nuclei were stained with Hoechst 33342, healthy mitochondria are shown in green and mitochondria in lysosomes are shown in red. (C-E) Fold change in mitophagy index over time after treatment with increasing concentrations of AUTAC4 under treatment with DMSO (C), 3 mM CCCP (D) or 0.1/0.1 mM antimycin/oligomycin (E), also for 18 h. (F) Quantification of changes in mitochondrial membrane potential over time (DYm) by measuring the TMRM relative fluorescence intensity (RFI) treated with DMSO, 10 mM CCCP, 10 mM and 20 mM AUTAC4. Normalised to number of nuclei. (G) Representative western blot of SH-SY5Y cells treated with DMSO, 10 mM AUTAC4 or 10 mM AUTAC4+0.1/0.1 mM antimycin/oligomycin for 18 h and, probed for p62, b-actin and Tom20. Quantifications of western blot for changes in Tom20 and p62 levels shown in (H) and (I), respectively. (J) Representative images of PANC-1 cells stably expressing the mCherry-EGFP-LC3 tandem reporter. Nuclei stained with Hoechst 33342, autophagosomes are shown in the EGFP channel and autolysosomes in the mCherry channel. Fold change in the number of autophagosome (K) and autolysosome (L) puncta in AUTAC4 treated cells. All data shown are mean±SEM, n=3, *p<0.05, *** p<0.001. For mito-mKeima experiments, statistics were calculated by Two-way ANOVA with Tukey's multiple comparisons test. For western blots, TMRM and LC3 tandem reporter assay, statistics were calculated with one-way ANOVA with Tukey's multiple comparisons test.
as §1
FIG. 4. ULKTACs retain ULK1 agonist activity and subsequent induction of autophagy (A) Western blot of PANC-1 cells treated with ULKTACs±bafilomycin, probed for p-ULK1 (S317), ULK1, p62, b-Actin, LC31 and LC3II. Quantifications of (A) for the pULK1:ULK1 ratio (B) LC3I:LC3II ratio (C) and changes in p62 (D). (E) Representative images of PANC-1 cells stably expressing the mCherry-EGFP-LC3 tandem reporter treated with ULKTACs w/or w/o bafilomycin. Nuclei stained with Hoechst 33342, autophagosomes are shown in the EGFP channel and autolysosomes in the mCherry channel. Fold change in the number of autophagosome (F) and autolysosome (G) puncta. Data shown are mean±SEM, *p<0.05, ** p<0.01, *** p<0.001, one-way ANOVA, Dunnett's multiple comparisons test.
PANC-1 and A549 cells were separately seeded at a medium density in 24-well plates and infected overnight with 500 μL of filtered viral supernatant containing polybrene at a final concentration of 8 μg/mL. Cells were selected at 48 h post-transfection with 1 μg/mL puromycin and expanded into 10 cm tissue-culture treated dishes. Puromycin treatment was withheld once control cells had died. Experiments were performed without puromycin present using pooled populations of transduced cells. A549 and PANC-1 stably expressing mCherry-EGFP-LC3 tandem reporter cells were imaged with the PerkinElmer Opera Phenix or Opera Phenix Plus High Content Imaging Systems and analysed using Columbus software (v2.9.1). […]

SMILES | LC31: LC3II ratio (LC3) | autophagic flux (PANC-1 cells) | enhanced number of mCherry puncta (PANC-1 cells) | fold increase in number of mCherry puncta (PANC-1 cells) [fold] | fold increase in number of EGFP puncta (PANC-1 cells) [fold] | green fluorescent puncta / number of autophagosomes (PANC-1 cells)
O=C(Nc1cc(C(F)(F)F)cc(C(F)(F)F)c1)N[C@@H](C(=O)Nc1ccc(F)cc1F)c1ccc(OCc2cn(CCOCCOCCNC(=O)C(=O)c3c(-c4ccccc4)[nH]c4ccccc34)nn2)cc1 [NZ-65, (R)-2-(3-(3,5-bis(trifluoromethyl)phenyl)ureido)-N-(2,4-difluorophenyl)-2-(4-((1-(2-(2-(2-(2-oxo-2-(2-phenyl-1H-indol-3-yl)acetamido)ethoxy)ethoxy)ethyl)-1H-1,2,3-triazol-4-yl)methoxy)phenyl) acetamide] | increases in the LC31: LC3II ratio | did not block autophagic flux | reversed | 1.3 | 1.5 | –
O=C(Nc1ccc(F)cc1F)[C@H](NC(=S)Nc1cc(C(F)(F)F)cc(C(F)(F)F)c1)c1ccccc1 [BL-918, reference compound] | increases in the LC31: LC3II ratio | – | – | – | – | mild increase in autophagosome number
O=C(Nc1cc(C(F)(F)F)cc(C(F)(F)F)c1)N[C@@H](C(=O)Nc1ccc(F)cc1F)c1ccc(OCc2cn(CCCCCCNC(=O)C(=O)c3c(-c4ccccc4)[nH]c4ccccc34)nn2)cc1 [NZ-66, (R)-2-(3-(3,5-bis(trifluoromethyl)phenyl)ureido)-N-(2,4-difluorophenyl)-2-(4-((1-(6-(2-oxo-2-(2-phenyl-1H-indol-3-yl)acetamido)hexyl)-1H-1,2,3-triazol-4-yl)methoxy)phenyl) acetamide] | increases in the LC31: LC3II ratio | did not block autophagic flux | reversed | 1.3 | 1.5 | –
